From PubChem BioAssay (NCI)
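Method: 48-hour compound exposure of cells in 96-well plates, five concentrations, linear interpolation of endpoints. GI50: concentration for 50% inhibition of growth. TGI: concentration producing complete growth inhibition.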

Tests used:
Experiment in all cases: NCI-60 cell line screen, 48 h
OVCAR-8 ovarian = tested on: OVCAR-8 ovarian
HT29 colon = tested on: HT29 colon
NCI-H226 lung = tested on: NCI-H226 lung
SNB-19 CNS = tested on: SNB-19 CNS
UACC-62 melanoma = tested on: UACC-62 melanoma
NCI-H460 lung = tested on: NCI-H460 lung
SN12C renal = tested on: SN12C renal
EKVX NSCLC = tested on: EKVX NSCLC
MOLT-4 leukemia = tested on: MOLT-4 leukemia
SF-268 CNS = tested on: SF-268 CNS

SMILES | TGI (OVCAR-8 ovarian) [µM] | TGI (HT29 colon) [µM] | TGI (NCI-H226 lung) [µM] | TGI (SNB-19 CNS) [µM] | TGI (UACC-62 melanoma) [µM] | TGI (NCI-H460 lung) [µM] | TGI (SN12C renal) [µM] | TGI (EKVX NSCLC) [µM] | TGI (MOLT-4 leukemia) [µM] | TGI (SF-268 CNS) [µM] | GI50 (OVCAR-8 ovarian) [µM] | GI50 (HT29 colon) [µM] | GI50 (NCI-H226 lung) [µM] | GI50 (SNB-19 CNS) [µM] | GI50 (UACC-62 melanoma) [µM] | GI50 (NCI-H460 lung) [µM] | GI50 (SN12C renal) [µM] | GI50 (EKVX NSCLC) [µM] | GI50 (MOLT-4 leukemia) [µM] | GI50 (SF-268 CNS) [µM]
O=C(CSCC(=O)N/N=C/c1cccc(O)c1)N/N=C/c1cccc(O)c1 | > 100 | > 100 | > 100 | > 100 | > 100 | > 100 | > 100 | > 100 | > 100 | > 100 |  |  |  |  |  |  |  |  |  | 
CCOC(=O)c1c2c(n(-c3ccc(C)cc3)c1C)-c1ccccc1C(=O)C2(C(=O)OCC)C(=O)OCC | 98.4 | > 84.3 | > 94.7 | > 100 | > 91.8 | 98.5 | > 100 | > 88.2 | > 4.64 | > 91.9 |  |  |  |  |  |  |  |  |  | 
O=c1[nH]c2[nH]c(=S)[nH]c(=S)c2[nH]1 | > 100 | > 100 | > 100 | > 100 | > 100 | > 100 | > 100 | > 100 | > 100 | > 100 |  |  |  |  |  |  |  |  |  | 
CN1C(=O)CC(=O)N1/C(=C/c1ccccc1)c1ccccc1 | > 100 | > 100 | > 100 | > 100 | > 100 | > 100 | > 100 | > 100 | 55.5 | > 100 |  |  |  |  |  |  |  |  |  | 
COc1ccc2nc3cc(Cl)ccc3c(NC(C)CCCN(CCCl)CCCl)c2c1 (stereo not drawn) | 4.32 | 2.81 | 3.44 | 7.15 | 2.41 | 1.58 | 8.66 | 18.2 | 0.344 | 4.28 |  |  |  |  |  |  |  |  |  | 
CSCCC(C(=O)O)N(C)C (stereo not drawn) | > 100 | > 100 | > 100 | > 100 | > 100 | > 100 | > 100 | > 100 |  | > 100 |  |  |  |  |  |  |  |  |  | 
C=CCNC(=O)C(C)C1CCC2(C)C=CC(=O)C(C)=C2C1O (stereo not drawn) | > 100 | > 100 | > 100 | > 100 | > 100 | > 100 | > 100 | > 100 | > 100 | > 100 |  |  |  |  |  |  |  |  |  | 
Oc1ccc(C(=C(Br)c2ccccc2)c2ccc(O)cc2)cc1 | 22.2 | 4.78 | 33 | 17.1 | 23.1 | 31.6 | 18.9 | 26.2 | 40.5 | 16.5 |  |  |  |  |  |  |  |  |  | 
C=C(C#N)C(=O)OCC(CC)CC.C=C(C#N)C(=O)OCC(CC)CC.CS(C)=O.CS(C)=O.Nc1c(N=Nc2ccc(-c3ccc(N=Nc4cc(S(=O)(=O)[O-])c5ccccc5c4N)cc3)cc2)cc(S(=O)(=O)[O-])c2ccccc12.[Pt+2] | 42.3 | > 69.7 | > 74.1 | > 100 | 97.4 | > 100 | > 100 | 63.3 | > 91.3 | 59.1 | 19.2 | 27.2 | 36.8 | > 100 | 36.8 | 44.4 | 57.7 | 26 | 27.1 | 24.9
Cc1ccc(S(=O)(=O)OC2CC(C(C)(C)C)CCC2c2ccccc2)cc1 (stereo not drawn) | > 100 | > 100 | > 100 | > 100 | > 100 | > 100 | > 100 | > 100 | > 100 |  |  |  |  |  |  |  |  |  |  | 
O=C1c2cc(O)c(O)cc2O[C@H](c2ccc(O)c(O)c2)[C@H]1O | > 100 | > 100 | > 100 | > 100 | > 100 | > 100 | > 100 | > 100 | > 100 | > 100 |  |  |  |  |  |  |  |  |  | 
O=C1c2ccccc2C(=O)c2[nH]cnc21 | > 100 | > 100 | 93.3 | > 100 | 82.2 | > 100 | > 100 | > 100 | > 100 | > 100 |  |  |  |  |  |  |  |  |  | 
CCN(CC)CCNc1ccc2ncn3c4ccc(O)cc4c(=O)c1c23 | 9.55 | 7.06 | 1.33 | 19.2 | 11.8 | 12.2 | 15.1 | 21.9 | 3.59 | 13.6 |  |  |  |  |  |  |  |  |  | 
